In patent publication US8637679B2, “Process for the isolation of organic compounds useful for the treatment of cancer” (Council of Scientific and Industrial Research, priority 2011, dated 2014):

How the values were obtained:
Storage stability = format: physicochemical
Panc10.05 = assay: MTT cell viability assay, Panc10.05; format: cell-based, human; conditions: Homo sapiens, Panc1005; Panc10.05, 48 hrs
Protocol: (§1) Human cervical cancer cell lines (HeLa, ME-180 and SiHa), brain tumor cell lines (U87MG, U373MG, U87MG EGFRvIII, T98G, A172 and LN229), lymphoid leukemia (MOLT-3, MOLT-4, REH and CEMC-7), myloid leukemia (K562), pancreatic cancer (MIAPaCa-2, AsPC-1, Panc-1 and Panc 10.05), lung cancer (A549) and colon cancer (HCT116 and SW480) cell lines from American Type Culture Collection, Manassas, Va., USA were grown in IMDM or RPMI (cell specific) Medium supplemented with 10% fetal bovine serum and 1% antibiotic-antimycotic. Cells were cultured in 37° C. in an atmosphere of 5% CO2.
(§2) Viability of cancer cell lines after treatment as at the indicated times was determined by MTT assay. Briefly, 10,000 cells were plated in triplicate in 96 well plates and incubated for 24 and 48 hours in complete media in presence of varying dose of mahanine (0-50 μM). 100 ug MTT was added in each well. Incubate the plate for 1-4 hours at 37° C. and humidified 5% CO2 atmosphere. Absorbance was recorded at 550 nm with 96 well plate readers.

BxPC-3 = assay: Scratch-wound haptotaxis assay, BxPC-3; format: cell-based, human; conditions: BxPC-3, highest treated cells, 6 hrs
Protocol: Highly and moderately invasive pancreatic cancer cell lines, MIAPaCa-2 and BxPC3 (1×10^6/ml/well) were cultured to >90% confluence in 6 well plate. Consequently, cell were rinsed with PBS and starved in low serum media (2 ml containing 0.5%-0.1% serum in RPMI-1640 for MIAPaCa-2 and BxPC-3) for overnight. On the following day, three separate scratch-wounds were made through the confluent cells. Scratched plate was rinsed with PBS and replaced with serum starved media containing successive doses of mahanine or EtOH for 6 hrs. Picture was taken by using phase contrast at 10× accordingly.

Vero = assay: MTT cell viability assay, Vero normal cells; format: cell-based, African monkey
[1] = tested on: glioma (T98G) and cervical (HeLa) cancer cells; assay: Comparative cytotoxicity of mahanine and analogs by MTT; format: cell-based, human
Protocol: as §1, §2

MIAPaCa-2 = assay: In vitro colony formation on matrigel; format: cell-based, human
U87MG = assay: MTT cell viability assay, U87MG; format: cell-based, human; conditions: Homo sapiens, U-87 MG, 48 hrs
Protocol: as §1, §2

[2] = tested on: glioma cells (U87MG, U373MG, LN229, A172 and T98G); assay: MTT assay, panel of glioma cell lines; format: cell-based, human; conditions: Homo sapiens, Glioma cell, range over U87MG, 48 hr, read-out: IC50 values against different glioma cell lines
Protocol: as §1, §2

**Q.** What does the source list for CC(C)=CCCC1(C)C=Cc2c(c(C)cc3c2[nH]c2cc(O)ccc23)O1 (stereo not drawn) [Mahanine, mahanine]?
**A.** stable storage time (Storage stability; dissolved in ethanol, −20° C.): > 6 months; stability at room temperature (Storage stability; purified compound): stable in room temperature; IC50 (Panc10.05): 18.5 ± 1.6 µM; wound closure / migratory cells (BxPC-3): < 5%; IC50 (Vero; Primates, Vero normal cell line, 48 hrs): > 100 µM; sensitivity of Vero cells (Vero; proliferating normal cells, in vitro): less sensitive; fold less IC50 of mahanine compared to mahanimbine [1]: 2-2.5 fold; colony formation (MIAPaCa-2; 15 μM, within 24 hrs): absolutely inhibited; colony formation (MIAPaCa-2; 20 μM, after 72 hrs): could not colonize; inhibition at 10 µM (MIAPaCa-2; Homo sapiens, MIA PaCa-2, 10 μM, within 24 hrs): ~20%; IC50 (U87MG): 13.4 ± 0.4 µM; IC50 [2]: 12 to 17 µM
